Results reported in patent US20230167408A1, “METHODS AND COMPOSITIONS FOR MAINTAINING AND EXPANDING HEMATOPOIETIC STEM CELLS” (Trailhead Biosystems Inc., priority 2021, published 2023).
Entries after “also recorded” stand apart in the source; their conditions may differ.

What was measured:
Format in all cases: cell-based, human
[1] = system: CD34+ population of cells isolated from cord blood; assay: Factor criticality analysis (dynamic profile analysis) of HSC expansion recipe; design: GATA2 expression level / MEG3 expression level / CRHBP expression level: unit not given here
Source text: In this example, to assess the impact of elimination of each validated factor identified as described in Example 1, dynamic profile analysis was used and compared the expression level of genes of interest in the absence of each finalized factor while others are kept present. […] The results of the criticality analysis for the factors FICZ, LPA, Vit. C and Activin A are shown in FIG. 6A-B. The results of the criticality analysis for VPA are shown in FIG. 7A-B. The results of the criticality analysis for Yhhu 3792 are shown in and FIG. 8A-B.
For the HSC expansion recipe, each of the six finalized factors were removed while other five factors were present and the expression levels of GATA2, HOXA5, CRHBP was assessed compared to the presence of all […]. Because SCF and TPO are cytokines impacting cell growth and survival, our recipe included these cytokines as well. When FICZ was removed, values for GATA2 expression decreased from 642 to 512, while HOXA5 and MEG3 expression was unchanged. […] Removal of Vit.C decreased the level of MEG3 from 82 to 53. Activin A is a critical factor for MEG3, since its removal decreases MEG3 levels from 81 to 40.

[2] = system: CD34+ population of cells isolated from cord blood; assay: HD-DoE effector experiments, gene expression modeling after 3-day treatment; settings: for factor contribution on expression of MEG3: same 8-factor experiment optimized for maximum MEG3, FIG. 2; for factor contribution (impact) on expression of CRHBP: 8-factor experiment tropoelastin, lipid mixture, propionate, biotin, geltrex, N-acetyl cysteine, prostaglandin E2, VPA, FIG. 3/4; for factor contribution on expression of CRHBP: Yhhu 3792, fibronectin, TPCA-1, GW9662, Z-vad-fmk, VEGF, FIG. 5
Source text: This example utilizes a method of High-Dimensional Design of Experiments (HD-DoE), as previously described in Bukys et al. (2020) Iscience 23:101346. The method employs computerized design geometries to simultaneously test multiple process inputs and offers mathematical modeling of a deep effector/response space. The method allows for finding combinatorial signaling inputs that control a complex process, such as during cell differentiation. It allows testing of multiple plausible critical process parameters, as such parameters impact output responses, such as gene expression. Because gene expression provides hallmark features of the phenotype of, for example, a human cell, the method can be applied to identify, and understand, which signaling pathways control cell fate. In the current example, the HD-DOE method was applied with the intent to find conditions for expansion and maintenance of HSCs.
Specifically, to develop the HSC recipe, the impact of agonists and antagonists of multiple signaling pathways (herein called effectors) were tested on expression of two sets of 53 pre-selected genes after a 3-day treatment. Specific genes in the measured subset are highly enriched in HSC and include CRHBP, MLLT3, MEG3, MECOM, HOXA5 and GATA2. The effectors chosen include small molecules or proteins, some of which are used during in vitro expansion of HSC.
To test the effectors, experiments with at least 8 factors were designed that can assess the response of cells to 48 or more different combinations of effectors in a range of concentrations. To analyze the models, we focused on expression of genes that are either expressed or enriched in primitive HSC including CRHBP, GATA2, MLLT3 and MEG3. The impact of each effector on gene expression level is defined by a parameter called factor contribution that is calculated for each effector during the modeling. All the experiments were conducted using a CD34^+ population of cells isolated from cord blood.
To identify the recipe for HSC expansion, cells were treated with various effectors for 3 days in media containing stem cell factor (SCF) and thrombopoietin (TPO) and the gene expression of cells was modeled. […] Additionally, on this model we observed NOTCH1 upregulation and MPO downregulation. […] Previous studies have shown that NOTCH1 activation increases HSC self-renewal in vivo (Stier et al. (2002) Blood 99:2369-78).
To further improve the recipe for HSC maintenance and expansion, additional HD-DoE experiments were performed. […] The goal was to evaluate further factors to possibly increase the complexity of the signaling inputs to attain effective fate control. As previously, we focused on expression of HSC enriched genes mentioned earlier. An 8-factor experiment was performed, testing tropoelastin, lipid mixture, propionate, biotin, geltrex, N-acetyl cysteine, prostaglandin E2, and VPA. Similar to the previous experiment, CD34^+ cells were treated with 48 conditions of combinations of the factors for 3 days and gene expression analysis and modeling was performed.
To further improve the recipe for HSC maintenance and expansion, additional HD-DoE experiments were performed. Another 8-factor experiment was performed consisting of LPA, Yhhu 3792, fibronectin, TPCA-1, GW9662, Z-vad-fmk, VEGF and activin A. Similarly to the previous experiment, CD34^+ cells were treated with 48 conditions of combinations of the factors for 3 days and then gene expression analysis experiments were conducted.

CD34+ cells = assay: Culture of CD34+ cells in the presence of commonly used cytokines
Procedure: To further validate the HSC culture recipe described in Example 1, CD34+ cord blood derived cells were grown for 7 days in media comprising the ingredients shown in Table 1 and flow cytometry analysis was used to assess markers of the LT-HSC state. Markers tested included Lineage (CD3, CD14, CD16, CD19, CD20, CD56), CD34, CD38, CD45RA and CD90. Additionally, cells were grown in media with SCF and TPO as a control, commonly used by others to promote HSC expansion. […] 100,000 cells were plated for each condition.

[3] = named factor removed, other factors present
[4] = 8-factor experiment LPA, FICZ, Pyrintegrin, Laminin521, G0693, Vit.C, G-SCF, activin A, 3 days, media with SCF and TPO, FIG. 1/2
[5] = 8-factor experiment with tropoelastin ... VPA
[6] = 8-factor experiment with tropoelastin ... VPA optimized for maximum GATA2, FIG. 4
[7] = 8-factor experiment LPA, activin A, 3 days

L-ascorbic acid phosphate sesquimagnesium salt hydrate [Vit.C]
MEG3 expression level ([1]; all finalized factors present): 82
MEG3 expression level [1, 3]: 53
factor contribution (impact) on expression of GATA2 ([2]; 8-factor experiment LPA, FICZ, Pyrintegrin, Laminin521, G0693, Vit.C, G-SCF, activin A, 3 days, media with SCF and TPO, FIG. 1/2, hydrate): 12
factor contribution (impact) on expression of GATA2 ([2]; 8-factor experiment LPA, FICZ, Pyrintegrin, Laminin521, G0693, Vit.C, G-SCF, activin A, 3 days, media with SCF and TPO, FIG. 1/2, listed as Vit. C, hydrate): positive impact
factor contribution on expression of MEG3 [2]: 16

O=Cc1c2c(cc3c1=Nc1ccccc1-3)=Nc1ccccc1-2 [FICZ, 6-Formylindolo[3,2-b]carbazole]
GATA2 expression level ([1]; all finalized factors present): 642
GATA2 expression level [1, 3]: 512
HOXA5 expression level [1, 3]: unchanged
MEG3 expression level [1, 3]: unchanged
factor contribution (impact) on expression of GATA2 [2, 4]: 21
factor contribution (impact) on expression of GATA2 ([2]; 8-factor experiment LPA, FICZ, Pyrintegrin, Laminin521, G0693, Vit.C, G-SCF, activin A, 3 days, media with SCF and TPO, FIG. 1/2, listed as FCIZ): positive impact

CC(=O)N[C@@H](CS)C(=O)O [N-acetyl cysteine]
factor contribution (impact) on expression of CRHBP ([2]; 3 days): < 1

IL6: commonly used cytokine to expand HSC
lineage bias of CD34+ cells cultured in the presence of the cytokine (CD34+ cells): induction of a myeloid bias

CCCCC[C@H](O)/C=C/[C@H]1[C@H](O)CC(=O)[C@@H]1C/C=C\CCCC(=O)O [prostaglandin E2]
effect of treatment on other HSC enriched genes [2, 5]: downregulates
factor contribution (impact) on expression of GATA2 [2, 6]: 25

lysophosphatidic acid [LPA]
GATA2 expression level ([1]; all finalized factors present): 644
GATA2 expression level [1, 3]: 525
factor contribution on expression of CRHBP [2, 7]: 8

CCCC(CCC)C(=O)O [VPA, Valproic acid]
CRHBP expression level ([1]; all finalized factors present): 285
MEG3 expression level ([1]; all finalized factors present): 106
CRHBP expression level [1, 3]: 138
GATA2 expression level [1, 3]: reduced
MEG3 expression level [1, 3]: 52
impact on expression of MEG3 ([2]; 8-factor experiment with tropoelastin ... VPA, FIG. 4): positive impact

CCC(=O)O [Propionate, propionate]
factor contribution (impact) on expression of CRHBP ([2]; 3 days): 8

COc1cccc(Oc2cccc3nc(Nc4ccc(C(C)C)cc4)nc(N)c23)c1 [Yhhu 3792]
CRHBP expression level ([1]; all finalized factors present): 202
CRHBP expression level [1, 3]: 169
factor contribution on expression of CRHBP [2, 7]: 19

fibronectin
factor contribution on expression of CRHBP [2, 7]: 18

O=C(O)CCCC[C@@H]1SC[C@@H]2NC(=O)N[C@@H]21 [biotin]
factor contribution (impact) on expression of CRHBP ([2]; 3 days): 5

B1: Activin A: TGFb pathway agonist (protein, UniProt P08476 311-426, looked up)
Inhibin beta A chain: GLECDGKVNICCKKQFFVSFKDIGWNDWIIAPSGYHANYCEGECPSHIAGTSGSSLSFHSTVINHYRMRGHSPFANLKSCCVPTKLRPMSMLYYDDGQNIIKKDIQNMIVEECGCS
modifications: Inhibin beta A chain
notes: TGFb pathway agonist
MEG3 expression level ([1]; all finalized factors present): 81
GATA2 expression level [1, 3]: positive impact
HOXA5 expression level [1, 3]: positive impact
MEG3 expression level [1, 3]: 40
factor contribution (impact) on expression of GATA2 [2, 4]: modest; also recorded: positive impact
factor contribution on expression of CRHBP [2, 7]: 26
factor contribution on expression of MEG3 [2]: 23

B2: tropoelastin: effector tested in the 8-factor experiment (protein, UniProt P15502 27-786, looked up)
Elastin: GGVPGAIPGGVPGGVFYPGAGLGALGGGALGPGGKPLKPVPGGLAGAGLGAGLGAFPAVTFPGALVPGGVADAAAAYKAAKAGAGLGGVPGVGGLGVSAGAVVPQPGAGVKPGKVPGVGLPGVYPGGVLPGARFPGVGVLPGVPTGAGVKPKAPGVGGAFAGIPGVGPFGGPQPGVPLGYPIKAPKLPGGYGLPYTTGKLPYGYGPGGVAGAAGKAGYPTGTGVGPQAAAAAAAKAAAKFGAGAAGVLPGVGGAGVPGVPGAIPGIGGIAGVGTPAAAAAAAAAAKAAKYGAAAGLVPGGPGFGPGVVGVPGAGVPGVGVPGAGIPVVPGAGIPGAAVPGVVSPEAAAKAAAKAAKYGARPGVGVGGIPTYGVGAGGFPGFGVGVGGIPGVAGVPGVGGVPGVGGVPGVGISPEAQAAAAAKAAKYGAAGAGVLGGLVPGAPGAVPGVPGTGGVPGVGTPAAAAAKAAAKAAQFGLVPGVGVAPGVGVAPGVGVAPGVGLAPGVGVAPGVGVAPGVGVAPGIGPGGVAAAAKSAAKVAAKAQLRAAAGLGAGIPGLGVGVGVPGLGVGAGVPGLGVGAGVPGFGAGADEGVRRSLSPELREGDPSSSQHLPSTPSSPRVPGALAAAKAAKYGAAVPGVLGGLGALGGVGIPGGVVGAGPAAAAAAAKAAAKAAQFGLVGAAGLGGLGVGGLGVPGVGGLGGIPPAAAAKAAKYGAAGLGGVLGGAGQFPLGGVAARPGFGLSPIFPGGACLGKACGRKRK
effect of treatment on other HSC enriched genes [2, 5]: downregulates
factor contribution (impact) on expression of GATA2 [2, 6]: 17

B3: G-CSF: commonly used cytokine to expand HSC (protein, UniProt P09919 31-207, looked up)
Granulocyte …: TPLGPASSLPQSFLLKCLEQVRKIQGDGAALQEKLVSECATYKLCHPEELVLLGHSLGIPWAPLSSCPSQALQLAGCLSQLHSGLFLYQGLLQALEGISPELGPTLDTLQLDVADFATTIWQQMEELGMAPALQPTQGAMPAFASAFQRRAGGVLVASHLQSFLEVSYRVLRHLAQP
lineage bias of CD34+ cells cultured in the presence of the cytokine (CD34+ cells): induction of a myeloid bias
